Results from patent US5635379A, “D-2-alkyl-tryptophan and peptides containing same” (Deghenghi; Romano, priority 1990, dated 1997).
Square brackets hold non-standard residues; d marks the D form. Peptide text beside a SMILES is read from it. dTrp(2-Me) = Cc1[nH]c2ccccc2c1C[C@@H](N)C(=O)O

Legend:
Growth Hormone release = experiment: GH release in 10-day old rats after subcutaneous injection; assay type: in vivo; conditions: s.c. 160 μg/kg
Protocol: The peptides of Examples 4 and 5 were tested as Growth Hormone releasers in rats. GH released in a series of seven 10-day old rats, injected subcutaneously with a standard dose of 160 μg/kg and sacrificed 15 minutes after the injection.

[1] = tested on: pituitary cell monolayers; experiment: GH-releasing activity in pituitary cell culture (monolayers); assay type: cell-based, Sprague Dawley rats; conditions: for GH in medium: 2 hours incubation
Protocol: (§1) Male Sprague Dawley rats (Charles River, Calco, Italy) of 2-3 months of age were used. Rats were housed at 22 +2° C., with lighting cycle of 14 h light: 10 h dark (lights on from 06.00 to 20.00 h), at least 10 days before starting the experiments. A standard dry diet and water were available ad libitum.
Pituitary tissue used for cell dissociation included only the anterior lobe. Briefly, pituitary glands were collected in sterile F-10 medium and after cutting into small fragments incubated twice (30 minutes each) at 37° C. in F-10 medium containing 6% fetal calf serum and collagenase (2.5 mg/ml) (Boehringer, Mannheim GmbH, Germany). Fragments were then washed in Dulbecco's PBS, Ca^2+ and Mg^2+ free medium and mechanically dissociated. Single cell suspension was planted onto 24-well (2×10^5 cells/well) culture plates. The cells were incubated in F-10 medium supplemented with 10% horse serum, 4% fetal calf serum and gentamycin (25 μg/ml), in a humidified atmosphere of 5% CO2 and 95% air at 37° C.
After 3 days, the medium was removed and the cells washed twice with serum free F-10, then incubated with 1 ml of F-10 containing 0.1% BSA only, or with added various concentrations of synthetic peptides.
After incubation for 2 h at 37° C., media were collected and stored frozen at -20° C. until assayed for measurement of GH content.
(§2) Medium and plasma GH was measured by radioimmunoassay using materials supplied by the NIADDK Bethesda, Md. Values were expressed in term of NIASSK-rat-GH-RP-2 standard (potency 2 IU/ml), as ng/ml of medium or plasma.
(§3) The minimum detectable value of rat was 1.0 ng/ml; intra-assay variability was 6%. To avoid inter-assay variation, samples from each experiment were assayed simultaneously.

GH release [2] = experiment: GH-releasing activity i.v. in male rats anesthetized with ketamine and xilazine; assay type: in vivo, Sprague Dawley rats
Protocol: as §1
(§4) Between 09.00-10.00 h rats were anesthetized with ketamine (58 mg/kg, Inoketam, VIRBAC, Milano) and xilazine (12 mg/kg, Rompun, Bayer, Milano). Thirty minutes later, a blood sample ([…]) was withdrawn from the exposed jugular vein, peptides were injected intravenously or subcutaneously, and further blood samples were collected 10, 20 and 30 minutes later.
as §2, §3

GH release [3] = experiment: GH-releasing activity s.c. in male rats anesthetized with ketamine and xilazine; assay type: in vivo, Sprague Dawley rats
Protocol: as §1, §4, §2, §3

[4] = Acute cardiovascular toxicity in the rat, single i.v. dose, mortality; assay type: in vivo; conditions: for Dead rats/Total N° of rats per group: observed up to 4 hours
Protocol: These two peptides were also tested for acute cardiovascular toxicity in the rat.
Dosages were calculated on the basis of the declared peptide content in each product, as specified below:
A single dose of HEXARELIN or GHRP-6 was administered to rats in different calendar dates in such a way that each group/dose should be treated in two subsequent days.
For each compound, appropriate amounts of solutions in 0.9% NaCl for injection were prepared just before treatment at the suitable concentrations. The solutions were sterilized by filtration (Millipore filter, pore size 0.22 μm). Owing to the type of the study (acute study) in which formulates were administered just after preparation, stability checks were not performed. Concentration checks were also not performed. The volume of solution injected was maintained constant at 1 ml/Kg.
The intravenous injections were done as a single dose in one vein of the tail with an appropriately gauged sterile, disposable, plastic syringe. The injection rate was about 0.1 ml/sec.
Periodical observations were made up to 4 hours after treatment. Abnormality and mortality were recorded. Body weight was recorded once during pre-trial and on the administration day to calculate the volumes to be injected.

GH release [5] = experiment: GH response in conscious, freely-moving rats after antiserum pretreatment and i.v. peptide; assay type: in vivo
Protocol: Sixty male rats were prepared with indwelling venous catheters under ether anesthesia three days before experimentation. On the day of experimentation, all animals were given an iv heparin injection (100 IU; 0630 h). At 0700 h, animals were treated with 0.5 ml of either normal serum (control-as), somatostatin antiserum (somatostatin-as; 0.25 ml+0.25 ml saline), growth hormone-releasing hormone antiserum (GHRH-as; 0.25 ml+0.25 ml saline), or both somatostatin antiserum and growth hormone-releasing hormone antiserum (0.25 ml somatostatin-as+0.25 ml GHRH-as). Blood sampling began […] after antiserum pretreatment, with blood samples collected every 20 minutes for three hours. After the 180 minute sample (1100 h), animals were treated iv with 25 μg/kg of either Hexarelin or GHRP-6. Blood samples were then collected at 5, 10, 15, 20 30, 40, and 60 minutes after peptide treatment. All samples were centrifuged immediately and the plasma frozen until assayed. The peak GH response to Hexarelin and GHRP-6 as well as the area under the response curves (AUCs) for the thirty minutes following peptide injection were calculated. Data were subjected to repeated measures analysis of variance and are expressed as mean ±SEM.

[6] = Hydrophobicity comparison (FIG. 12); assay type: physicochemical
growth hormone secretion = experiment: Growth hormone secretion in young healthy male volunteers; assay type: in vivo, human; conditions: young (20-30 years old) healthy male volunteers, various dosages
Protocol: The effects of HEXARELIN on growth hormone secretion in young (20-30 years old) healthy male volunteers were measured after the administration of various dosages.

[7] = i.v. 25 μg/kg peptide, pooled over antiserum pretreatments

Cc1[nH]c2ccccc2c1C[C@@H](NC(=O)[C@@H](N)Cc1cnc[nH]1)C(=O)N[C@@H](C)C(=O)N[C@@H](Cc1c[nH]c2ccccc12)C(=O)N[C@H](Cc1ccccc1)C(=O)N[C@@H](CCCCN)C(N)=O [Example 4, His-D-2-methyl-Trp-Ala-Trp-D-Phe-Lys-NH2] (H-H[dTrp(2-Me)]AW[dF]K-NH2)
activity as Growth Hormone releaser (Growth Hormone release): very active | GH (Growth Hormone release; sacrificed 15 minutes after injection): 201 ng/mL | GH in medium ([1]; 10^-6 M): 558.0 ± 19.1 ng/well | GH in medium ([1]; 10^-7 M): 589.1 ± 17.9 ng/well | GH in medium ([1]; 10^-8 M): 557.8 ± 15.9 ng/well | GH secretion versus basal ([1]; 10^-8 to 10^-6 M, two hours): stimulation of GH secretion over basal secretion | plasma GH (GH release [2]; i.v. 150 μg/kg, 10 min): 412.7 ± 39.7 ng/mL | plasma GH (GH release [2]; i.v. 150 μg/kg, 20 min): 132.2 ± 12.7 ng/mL | plasma GH (GH release [2]; i.v. 150 μg/kg, 30 min): 44.0 ± 6.0 ng/mL | plasma GH (GH release [2]; i.v. 150 μg/kg, time 0 min (before injection)): 15.0 ± 2.9 ng/mL | plasma GH (GH release [2]; i.v. 300 μg/kg, 10 min): 438.5 ± 26.8 ng/mL | plasma GH (GH release [2]; i.v. 300 μg/kg, 20 min): 213.8 ± 34.2 ng/mL | plasma GH (GH release [2]; i.v. 300 μg/kg, 30 min): 48.1 ± 8.8 ng/mL | plasma GH (GH release [2]; i.v. 300 μg/kg, time 0 min (before injection)): 13.5 ± 2.0 ng/mL | plasma GH (GH release [2]; i.v. 600 μg/kg, 10 min): 478.3 ± 19.8 ng/mL | plasma GH (GH release [2]; i.v. 600 μg/kg, 20 min): 164.2 ± 13.2 ng/mL | plasma GH (GH release [2]; i.v. 600 μg/kg, 30 min): 54.5 ± 13.3 ng/mL | plasma GH (GH release [2]; i.v. 600 μg/kg, time 0 min (before injection)): 18.4 ± 4.3 ng/mL | effect on plasma GH concentrations (GH release [2]; i.v. 150, 300 and 600 μg/kg, 10 and 20 minutes after administration): significant increases | plasma GH (GH release [3]; s.c. 150 μg/kg, 10 min): 107.1 ± 17.7 ng/mL | plasma GH (GH release [3]; s.c. 150 μg/kg, 20 min): 156.6 ± 18.7 ng/mL | plasma GH (GH release [3]; s.c. 150 μg/kg, 30 min): 86.0 ± 18.9 ng/mL | plasma GH (GH release [3]; s.c. 150 μg/kg, time 0 min (before injection)): 12.0 ± 4.0 ng/mL | plasma GH (GH release [3]; s.c. 300 μg/kg, 10 min): 80.6 ± 11.0 ng/mL | plasma GH (GH release [3]; s.c. 300 μg/kg, 20 min): 171.7 ± 22.0 ng/mL | plasma GH (GH release [3]; s.c. 300 μg/kg, 30 min): 102.7 ± 17.0 ng/mL | plasma GH (GH release [3]; s.c. 300 μg/kg, time 0 min (before injection)): 12.0 ± 4.0 ng/mL | plasma GH (GH release [3]; s.c. 600 μg/kg, 10 min): 90.7 ± 16.6 ng/mL | plasma GH (GH release [3]; s.c. 600 μg/kg, 20 min): 187.5 ± 15.4 ng/mL | plasma GH (GH release [3]; s.c. 600 μg/kg, 30 min): 115.3 ± 19.1 ng/mL | plasma GH (GH release [3]; s.c. 600 μg/kg, time 0 min (before injection)): 23.0 ± 6.0 ng/mL | effect on plasma GH, comparison with GHRP-6 (GH release [3]; s.c. 150, 300 and 600 μg/kg, 10, 20 and 30 minutes): more effective than GHRP-6 at all the considered times | Dead rats/Total N° of rats per group ([4]; single i.v. dose 5.0 mg/kg): 0/6 | Dead rats/Total N° of rats per group ([4]; single i.v. dose 7.5 mg/kg): 1/6 | Dead rats/Total N° of rats per group ([4]; single i.v. dose 10 mg/kg): 2/6 | toxicity compared with GHRP-6 ([4]; single i.v. dose, mortality): less toxic than GHRP-6 | Mean GH (GH release [5]; [7]): 235 ± 21 ng/mL | Peak GH (GH release [5]; [7]): 552 ± 59 ng/mL | GH AUC (GH release [5]; i.v. 25 μg/kg peptide, thirty minutes following injection, pooled over antiserum pretreatments): 7366 ± 912 ng/ml/30 min | overall GH response compared with GHRP-6 (GH release [5]; i.v. 25 μg/kg, pooled results): more effective in eliciting a higher mean GH response as compared to GHRP-6 | hydrophobicity compared with GHRP-6 [6]: greater hydrophobicity than GHRP-6 | effect on growth hormone secretion (growth hormone secretion): effective in vivo
